In patent US10689401B2, “C5-C6-oxacyclic fused iminothiazine dioxide compounds bearing an ether linker as BACE inhibitors, compositions, and their use” (Merck Sharp & Dohme Corp., priority 2016, dated 2020) one finds Ki data, which are given here for six molecules.

The target of test [1] is purified human autoBACE-2 (Homo sapiens (Human), UniProt Q9Y5Z0). Kind of test: BACE-2 Assay (BACE-HTRF assay). The test is classed as biochemical. As to conditions: Ki calculated from IC50 using the Cheng-Prusoff equation; QSY7-EISEVNLDAEFC-Eu-amide substrate, pH 5.0. The method, then: Inhibitor IC50s at purified human autoBACE-2 are determined in a time-resolved endpoint proteolysis assay that measures hydrolysis of the QSY7-EISEVNLDAEFC-Eu-amide FRET peptide substrate (BACE-HTRF assay). BACE-mediated hydrolysis of this peptide results in an increase in relative fluorescence (RFU) at 620 nm after excitation with 320 nm light. Inhibitor compounds, prepared at 3× the desired final concentration in 1×BACE assay buffer (20 mM sodium acetate pH 5.0, 10% glycerol, 0.1% Brij-35) supplemented with 7.5% DMSO are preincubated with an equal volume of autoBACE-2 enzyme diluted in 1×BACE assay buffer (final enzyme concentration 1 nM) in black 384-well NUNC plates for 30 minutes at 30° C. […] DMSO is present at 5% final concentration in the assay. Following laser excitation of sample wells at 320 nm, the fluorescence signal at 620 nm is collected for 400 ms following a 50 μs delay on a RUBYstar HTRF plate reader (BMG Labtechnologies). Raw RFU data is normalized to maximum (1.0 nM BACE/DMSO) and minimum (no enzyme/DMSO) RFU values. IC50s are determined by nonlinear regression analysis (sigmoidal dose response, variable slope) of percent inhibition data with minimum and maximum values set to 0 and 100 percent respectively. Similar IC50s are obtained when using raw RFU data. The Ki values are calculated from the IC50 using the Cheng-Prusoff equation.
Chain of purified human autoBACE-2 (Q9Y5Z0 63-518): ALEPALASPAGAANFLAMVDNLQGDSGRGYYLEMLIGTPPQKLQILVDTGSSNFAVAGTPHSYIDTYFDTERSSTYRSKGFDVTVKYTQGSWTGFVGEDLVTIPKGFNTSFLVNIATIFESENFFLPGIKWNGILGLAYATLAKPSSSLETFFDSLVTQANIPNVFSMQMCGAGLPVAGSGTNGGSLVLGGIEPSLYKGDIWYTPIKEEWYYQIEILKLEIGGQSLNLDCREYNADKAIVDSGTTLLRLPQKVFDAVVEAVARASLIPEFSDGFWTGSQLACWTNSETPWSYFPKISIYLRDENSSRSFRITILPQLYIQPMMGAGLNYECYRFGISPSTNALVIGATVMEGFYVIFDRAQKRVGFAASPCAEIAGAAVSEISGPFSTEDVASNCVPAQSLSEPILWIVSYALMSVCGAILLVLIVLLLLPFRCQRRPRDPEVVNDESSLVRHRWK

The target of test [2] is Recombinant human soluble BACE1 catalytic domain (Homo sapiens (Human), UniProt P56817). The test can be described thus: BACE1 HTRF FRET Assay. The test is classed as biochemical. The note with it: Ki calculated from IC50 using the Cheng-Prusoff equation; QSY7-APPswe-Eu substrate, pH 5.0; read-out: BACE-1 Ki. An excerpt: Reagents: Na^+-Acetate pH 5.0; 1% Brij-35; Glycerol; Dimethyl Sulfoxide (DMSO); Recombinant human soluble BACE1 catalytic domain (>95% pure); APP Swedish mutant peptide substrate (QSY7-APP^swe-Eu): QSY7-EISEVNLDAEFC-Europium-amide.
Chain of Recombinant human soluble BACE1 catalytic domain (P56817 75-416): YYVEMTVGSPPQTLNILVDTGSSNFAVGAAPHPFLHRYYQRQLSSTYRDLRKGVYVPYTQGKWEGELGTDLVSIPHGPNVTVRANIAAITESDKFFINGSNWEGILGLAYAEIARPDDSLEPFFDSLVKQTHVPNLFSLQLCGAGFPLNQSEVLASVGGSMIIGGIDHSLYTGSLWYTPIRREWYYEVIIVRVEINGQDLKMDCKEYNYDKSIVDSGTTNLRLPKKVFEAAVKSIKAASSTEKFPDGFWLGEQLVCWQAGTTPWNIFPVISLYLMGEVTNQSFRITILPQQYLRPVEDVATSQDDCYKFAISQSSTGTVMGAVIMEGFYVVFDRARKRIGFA
A homogeneous time-resolved FRET assay can be used to determine IC50 values for inhibitors of the soluble human BACE1 catalytic domain. This assay monitors the increase of 620 nm fluorescence that resulted from BACE1 cleavage of an APPswedish APP^swe mutant peptide FRET substrate (QSY7-EISEVNLDAEFC-Europium-amide). This substrate contains an N-terminal QSY7 moiety that serves as a quencher of the C-terminal Europium fluorophore (620 nm Em). In the absence of enzyme activity, 620 nm fluorescence is low in the assay and increased linearly over 3 hours in the presence of uninhibited BACE1 enzyme. Inhibition of BACE1 cleavage of the QSY7-APP^swe-Eu substrate by inhibitors is manifested as a suppression of 620 nm fluorescence.
Varying concentrations of inhibitors at 3× the final desired concentration in a volume of 10 ul are preincubated with purified human BACE1 catalytic domain (3 nM in 10 μl) for 30 minutes at 30° C. in reaction buffer containing 20 mM Na-Acetate pH 5.0, 10% glycerol, 0.1% Brij-35 and 7.5% DSMO. Reactions are initiated by addition of 10 μl of 600 nM QSY7-APP^swe-Eu substrate (200 nM final) to give a final reaction volume of 30 μl in a 384 well Nunc HTRF plate. The reactions are incubated at 30° C. for 1.5 hours. The 620 nm fluorescence is then read on a Rubystar HTRF plate reader (BMG Labtechnologies) using a 50 millisecond delay followed by a 400 millisecond acquisition time window. Inhibitor IC50 values are derived from non-linear regression analysis of concentration response curves. Ki values are then calculated from IC50 values using the Cheng-Prusoff equation using a previously determined […] of 8 μM for the QSY7-APP^swe-Eu substrate at BACE1.

By Ki is commonly meant a measure of affinity in units of concentration, obtained from inhibition or displacement.

Molecules are shown by their SMILES.

With `CC1(C)C[C@@H]2[C@](c3cc(Oc4ncc(F)cc4F)ccc3F)(CO1)NC(=N)C(C)(C)S2(=O)=O` [Example 20, (4aS,8aR)-4a-{5-[(3,5-difluoropyridin-2-yl)oxy]-2-fluorophenyl}-2,2,7,7-tetramethyltetrahydro-2H,5H-pyrano[4,3-b][1,4]thiazin-3(4H)-imine 1,1-dioxide], the inhibitory constant (Ki) in test [1] is 102 nM; in test [2] it was 53.2 nM.
As to `CC1(C)C[C@@H]2[C@](c3cc(Oc4cc(F)cnc4F)ccc3F)(CO1)NC(=N)C(C)(C)S2(=O)=O` [Example 21, (4aS,8aR)-4a-{5-[(2,5-difluoropyridin-3-yl)oxy]-2-fluorophenyl}-2,2,7,7-tetramethyltetrahydro-2H,5H-pyrano[4,3-b][1,4]thiazin-3(4H)-imine 1,1-dioxide], the values for the Ki in test [1] and in test [2] were 88 nM and 9.7 nM, respectively.
For `CC1(C)C[C@@H]2[C@](c3cc(OCC4CC4)ccc3F)(CO1)NC(=N)C(C)(C)S2(=O)=O` [Example 22, (4aS,8aR)-4a-[5-(cyclopropylmethoxy)-2-fluorophenyl]-2,2,7,7-tetramethyltetrahydro-2H,5H-pyrano[4,3-b][1,4]thiazin-3(4H)-imine 1,1-dioxide], in that order: 35.6 nM and 120 nM.
Take `CC(C)COc1ccc(F)c([C@]23COC(C)(C)C[C@H]2S(=O)(=O)C(C)(C)C(=N)N3)c1` [Example 23, (4aS,8aR)-4a-[2-fluoro-5-(2-methylpropoxy)phenyl]-2,2,7,7-tetramethyltetrahydro-2H,5H-pyrano[4,3-b][1,4]thiazin-3(4H)-imine 1,1-dioxide]: the Ki in test [1] is 66.7 nM; in test [2], 172 nM.
For `CC1(C)C[C@@H]2[C@](c3cc(OC4CCC4)ccc3F)(CO1)NC(=N)C(C)(C)S2(=O)=O` [Example 24], in that order: 109 nM and 183 nM.
For `CC(C)[C@H]1C[C@@H]2[C@](c3ccccc3F)(CO1)NC(=N)C(C)(C)S2(=O)=O` [Example 25, (4aS,7R,8aR)-4a-(2-fluorophenyl)-2,2-dimethyl-7-(propan-2-yl)tetrahydro-2H,5H-pyrano[4,3-b][1,4]thiazin-3(4H)-imine 1,1-dioxide], the inhibition constant Ki is 195 nM in test [1] and 185 nM in test [2].
